Experimental data published in patent publication US12600724B2, “Indole alkaloid and preparation method and use thereof” (NANJING UNIVERSITY OF CHINESE MEDICINE, priority 2022, dated 2026).

Test system: primary DRG neuron
Assay: Axon growth of primary DRG neurons (immunofluorescence, Neuro J)
Assay type: cell-based, C57BL/6J mice
Conditions: 24 hours; for fold induction at 10 µM: Mus musculus, multiple of total axon length of a single DRG neuron relative to blank control group; for Promotion of axon growth of the primary DRG neuron compared with the positive drug (in words): 10 μm
Procedure: Diabetic peripheral neuropathy involved a sensory neuron first, and a main pathological change was axonal atrophy and degeneration, or even disappearance. […] Therefore, the compounds in the examples were added with the primary DRG neuron to incubate for a certain period of time, then the axon growth of the DRG neuron was detected by immunofluorescence, and an axon length was quantified by Neuro J, so as to evaluate the promotion effect of the compound on the axon growth of the peripheral sensory neuron.
Primary antibodies of mice anti-β-tubulin III used for fluorescent staining were purchased from Sigma Company, cell culture reagents were all purchased from Gibco Company, and DRG neuronal cells were taken from C57BL/6J mice. Specific experimental steps were as follows: fresh DRG of the C57 mice was extracted to digest into a single-cell suspension and then inoculated into a culture plate for adherent culture overnight, with vinblastine as a positive drug, the to-be-detected compounds S1 to S87 ([…]) synthesized in the above examples were given to incubate for 24 hours, then an original culture medium was removed, 4% paraformaldehyde was added into each well to fix for 15 minutes after PBS washing, the mixture was permeabilized with 0.3% TritonX-100 for 5 minutes and sealed at room temperature with 4% BSA for 1 hour, a primary antibody (1:1000) was incubated at 4° C. overnight, a goat anti-mouse fluorescent secondary antibody (1:300) was incubated at room temperature in the dark for 1 hour, and a sealed slide was imaged by a fluorescence microscope (Leica). According to the image, a total axon length of a single DRG neuron was tracked by a Neuro J plug-in in Image J software, and a multiple of the total axon length relative to that of the blank control group was calculated.

| SMILES | fold induction at 10 µM | Promotion of axon growth of the primary DRG neuron compared with the positive drug (in words) |
| --- | --- | --- |
| CC[C@@]12C=C(C(=O)N[C@@H](CCC(=O)O)C(=O)OCCOCCOCCOCCO)n3c4c(c5ccccc53)CCN(CCC1)[C@H]42 [Compound S43] | 11.2 |  |
| CC[C@@]12C=C(C(=O)N[C@@H](Cc3cc4ccccc4[nH]3)C(=O)OCCOCCOCCOCCO)n3c4c(c5ccccc53)CCN(CCC1)[C@H]42 [Compound S37] | 10.8 |  |
| CC[C@@]12C=C(C(=O)N[C@@H](Cc3c[nH]cn3)C(=O)OCCOCCOCCOCCO)n3c4c(c5ccccc53)CCN(CCC1)[C@H]42 [Compound S45] | 10.5 |  |
| CC[C@@]12C=C(C(=O)OCCC(=O)OCCOCCOCCOCCOCCOCCO)n3c4c(c5ccccc53)CCN(CCC1)[C@H]42 [Compound S60] | 12 |  |
| CC[C@@]12C=C(C(=O)NCC(=O)OCCOCCOCCOCCOC)n3c4c(c5ccccc53)CCN(CCC1)[C@H]42 [Compound S3] | 13.2 | more outstanding effect |
| CC[C@@]12C=C(C(=O)NCC(=O)OCCOCCOCCOCCOCCO)n3c4c(c5ccccc53)CCN(CCC1)[C@H]42 [Compound S27] | 12.9 | more outstanding effect |
| CC[C@@]12C=C(C(=O)NCC(=O)OCCO)n3c4c(c5ccccc53)CCN(CCC1)[C@H]42 [Compound S23] | 10.3 |  |
| CC[C@@]12C=C(C(=O)NCC(=O)N[C@@H](CC(N)=O)C(=O)O)n3c4c(c5ccccc53)CCN(CCC1)[C@H]42 [Compound S77] | 10.8 |  |
| CC[C@@]12C=C(C(=O)N[C@@H](CO)C(=O)OCCOCCOCCOCCO)n3c4c(c5ccccc53)CCN(CCC1)[C@H]42 [Compound S34] | 10.5 |  |
| CC[C@@]12C=C(C(=O)N[C@@H](CN)C(=O)O)n3c4c(c5ccccc53)CCN(CCC1)[C@H]42 [Compound S72] | 11.3 |  |
| CC[C@@]12C=C(C(=O)NCC(=O)OCCOCCOCCOCCOCCOCCO)n3c4c(c5ccccc53)CCN(CCC1)[C@H]42 [Compound S28] | 12.2 |  |
| CC[C@@]12C=C(C(=O)NCC(=O)O)n3c4c(c5ccccc53)CCN(CCC1)[C@H]42 [Compound S66] | 12.8 | more outstanding effect |
| CC[C@@]12C=C(C(=O)N[C@@H](CO)C(=O)OC)n3c4c(c5ccccc53)CCN(CCC1)[C@H]42 [Compound S85] | 11.8 |  |
| CC[C@@]12C=C(C(=O)NCC(=O)OCCOCCOCCO)n3c4c(c5ccccc53)CCN(CCC1)[C@H]42 [Compound S25] | 12.3 |  |
| CC[C@@]12C=C(C(=O)N[C@@H](CC(=O)O)C(=O)O)n3c4c(c5ccccc53)CCN(CCC1)[C@H]42 [Compound S70] | 10.8 |  |
| CC[C@@]12C=C(C(=O)N[C@@H](C)C(=O)OC)n3c4c(c5ccccc53)CCN(CCC1)[C@H]42 [Compound S82] | 12.5 |  |
| CC[C@@]12C=C(C(=O)NCC(=O)OC)n3c4c(c5ccccc53)CCN(CCC1)[C@H]42 [Compound S83] | 12.7 |  |
| CC[C@@]12C=C(C(=O)N[C@@H](Cc3ccccc3)C(=O)O)n3c4c(c5ccccc53)CCN(CCC1)[C@H]42 [Compound S75] | 10.7 |  |
| CC[C@@]12C=C(C(=O)N[C@@H](CC(N)=O)C(=O)OCCOCCOCCOCCO)n3c4c(c5ccccc53)CCN(CCC1)[C@H]42 [Compound S41] | 11 |  |
| CC[C@@]12C=C(C(=O)NCC(=O)N[C@H](C(=O)O)C(C)C)n3c4c(c5ccccc53)CCN(CCC1)[C@H]42 [Compound S80] | 11.3 |  |
| CC[C@@]12C=C(C(=O)N[C@@H](Cc3ccccc3)C(=O)OCCOCCOCCOCCOC)n3c4c(c5ccccc53)CCN(CCC1)[C@H]42 [Compound S14] | 10.5 |  |
| CC[C@@]12C=C(C(=O)OCCCC(=O)OCCOCCOCCOCCOCCOCCO)n3c4c(c5ccccc53)CCN(CCC1)[C@H]42 [Compound S62] | 12.8 | more outstanding effect |
| CC[C@@]12C=C(C(=O)NCC(=O)N[C@@H](CC(C)C)C(=O)O)n3c4c(c5ccccc53)CCN(CCC1)[C@H]42 [Compound S79] | 10.6 |  |

| SMILES | fold induction at 10 µM | Promotion of axon growth of the primary DRG neuron compared with the positive drug (in words) |
| --- | --- | --- |
| CC[C@@]12C=C(C(=O)N[C@H](C(=O)OCCOCCOCCOCCO)C(C)C)n3c4c(c5ccccc53)CCN(CCC1)[C@H]42 [Compound S30] | 12.6 |  |
| CC[C@@]12C=C(C(=O)NCC(=O)OCCOCCOCCOC)n3c4c(c5ccccc53)CCN(CCC1)[C@H]42 [Compound S2] | 9.5 |  |
| CC[C@@]12C=C(C(=O)N[C@@H](CC(N)=O)C(=O)O)n3c4c(c5ccccc53)CCN(CCC1)[C@H]42 [Compound S71] | 10.5 |  |
| CC[C@@]12C=C(C(=O)N[C@@H](CC(C)C)C(=O)OCCOCCOCCOCCO)n3c4c(c5ccccc53)CCN(CCC1)[C@H]42 [Compound S31] | 11.8 |  |
| CC[C@@]12C=C(C(=O)NCC(=O)N[C@@H](CO)C(=O)OCCOCCOCCOCCO)n3c4c(c5ccccc53)CCN(CCC1)[C@H]42 [Compound S48] | 11.4 |  |
| CC[C@@]12C=C(C(=O)N[C@@H](CN)C(=O)OCCOCCOCCOCCO)n3c4c(c5ccccc53)CCN(CCC1)[C@H]42 [Compound S39] | 11.2 |  |
| CC[C@@]12C=C(C(=O)NCC(=O)N[C@H](C(=O)OCCOCCOCCOCCO)C(C)O)n3c4c(c5ccccc53)CCN(CCC1)[C@H]42 (some centres unmarked) [Compound S52] | 9.5 |  |
| CC[C@@]12C=C(C(=O)N[C@@H](C)C(=O)O)n3c4c(c5ccccc53)CCN(CCC1)[C@H]42 [Compound S73] | 12.1 |  |
| CC[C@@]12C=C(C(=O)N(CC(=O)OCCOCCOCCOCCO)C3CC3)n3c4c(c5ccccc53)CCN(CCC1)[C@H]42 [Compound S64] | 11.3 |  |
| CC[C@@]12C=C(C(=O)OCCC(=O)OCCOCCOCCO)n3c4c(c5ccccc53)CCN(CCC1)[C@H]42 [Compound S57] | 10.8 |  |
| CC[C@@]12C=C(C(=O)N[C@H](C(=O)OC)C(C)C)n3c4c(c5ccccc53)CCN(CCC1)[C@H]42 [Compound S84] | 11 |  |
| CC[C@@]12C=C(C(=O)OCCC(=O)OCCO)n3c4c(c5ccccc53)CCN(CCC1)[C@H]42 [Compound S53] | 9.9 |  |
| CC[C@@]12C=C(C(=O)NCC(=O)N[C@@H](Cc3ccc(O)cc3)C(=O)O)n3c4c(c5ccccc53)CCN(CCC1)[C@H]42 [Compound S78] | 10.2 |  |
| CC[C@@]12C=C(C(=O)OCCC(=O)OCCOCCOCCOCCOCCO)n3c4c(c5ccccc53)CCN(CCC1)[C@H]42 [Compound S59] | 10.6 |  |
| CC[C@@]12C=C(C(=O)N[C@@H](CC(C)C)C(=O)O)n3c4c(c5ccccc53)CCN(CCC1)[C@H]42 [Compound S67] | 11.3 |  |
| CC[C@@]12C=C(C(=O)NCC(=O)N[C@@H](CC(=O)O)C(=O)OCCOCCOCCOCCO)n3c4c(c5ccccc53)CCN(CCC1)[C@H]42 [Compound S50] | 11.3 |  |
| CC[C@@]12C=C(C(=O)NCC(=O)OCCOCCOCCOCCOCCOC)n3c4c(c5ccccc53)CCN(CCC1)[C@H]42 [Compound S4] | 11.5 |  |
| CC[C@@]12C=C(C(=O)N[C@@H](Cc3ccc(O)cc3)C(=O)OCCOCCOCCOCCO)n3c4c(c5ccccc53)CCN(CCC1)[C@H]42 [Compound S44] | 9.9 |  |
| CC[C@@]12C=C(C(=O)N[C@H](C(=O)OCCOCCOCCOCCO)C(C)O)n3c4c(c5ccccc53)CCN(CCC1)[C@H]42 (some centres unmarked) [Compound S35] | 12.1 |  |
| CC[C@@]12C=C(C(=O)N[C@@H](CS)C(=O)OCCOCCOCCOCCO)n3c4c(c5ccccc53)CCN(CCC1)[C@H]42 [Compound S46] | 10.7 |  |
| CCC(C)[C@H](NC(=O)C1=C[C@]2(CC)CCCN3CCc4c(n1c1ccccc41)[C@@H]32)C(=O)OCCOCCOCCOCCO (some centres unmarked) [Compound S32] | 12.3 |  |
| CC[C@@]12C=C(C(=O)N[C@H](C(=O)O)C(C)O)n3c4c(c5ccccc53)CCN(CCC1)[C@H]42 (some centres unmarked) [Compound S69] | 12.3 |  |
| CC[C@@]12C=C(C(=O)NCCNC(=O)OCCOCCOCCOCCO)n3c4c(c5ccccc53)CCN(CCC1)[C@H]42 [Compound S65] | 11 |  |
